Laboratory results as given in patent US20260315499A1, “2'- {HETEROCYCLYL (ARYL/ALKYL) METHYL} - CANNABIDIOL COMPOUNDS AND PROCESS FOR PREPARATION THEREOF” (COUNCIL OF SCIENTIFIC & INDUSTRIAL RESEARCH, priority 2023, published 2026).
Like-named read-outs stand apart in the source and are kept apart here.

Assays:
[1] = Cell viability assay in differentiated neuronal cells (MTT), N2A; assay type: cell-based; details: mouse, read-out: % Cell viability ± SD, N2A
Source text: (§1) In the present disclosure outlined herein, a focused library of cannabidiol analogues were studied for possible neuro-protective potential employing cell line-based stress model systems which mimic the biological stress conditions in vitro (J Cell Biochem., 2018, 119(8), 6482-6491).
(§2) Human neuroblastoma cells (SHSY5Y) and mouse neuroblastoma cells (N2A) were procured from American Type Culture Collection (ATCC). SHSY5Y cell cultures were maintained in DMEM F12 (Invitrogen) whereas N2A were cultured in DMEM (Invitrogen) with 10% Fetal Bovine Serum (Gibco) medium, subjected to differentiation to acquire neuronal morphology (employing differentiation media DMEM-F12, 3-5% FBS, (For differentiation, low concentration of FBS was used) and 50 μM retinoic acid). Differentiated cells were later seeded into 96 well plates, at a density of 1×10^4 before being incubated for 48 hrs with the synthesized library. The exhausted culture media was substituted with new culture media containing 0.5 mg/ml MTT dye. Eventually, the OD at 490 nm excitation was measured using a 96-well plate reader. The proportion of viable cells was determined as percentage of absorbance of untreated cultures relative to control.

[2] = Cell viability assay in differentiated neuronal cells (MTT), SHSY5Y; assay type: cell-based; details: human, read-out: % Cell viability ± SD, SHSY5Y
Source text: as §1, §2

p TrkB 816 [3] = experiment: Survival pathway protein expression by western blotting in SHSY5Y; assay type: cell-based, human
Experimental: (§3) Here, A1 was tested to find its role in eliciting survival pathway proteins in differentiated human neuroblastoma cells in concentration and time dependent manner.
(§4) To investigate the effect of A1 on the survival proteins, SHSY5Y cell cultures were treated with different concentrations for 6 hrs and analyzed for the expression of survival proteins, including p-Erk 44/42, p-AKT 473, Anti BDNF, and p TrkB 816 and p TrKB 515 by western blotting.

Anti BDNF [4] = experiment: as above; assay type: cell-based, human
Experimental: as §3, §4

p-Erk 44/42 = experiment: as above; assay type: cell-based, human; details: for Relative Protein Expression p ERK 44/42: 6 hrs
Experimental: as §3, §4

Anti BDNF [5] = experiment: as above; assay type: cell-based, human; details: for Relative Protein Expression Anti BDNF: A1 + Cort.
p TrkB 816 [6] = experiment: as above; assay type: cell-based, human; details: for Relative Protein Expression p TrkB 816: A1 + Cort.
depression mice model = experiment: In vivo corticosterone induced depression model: Forced Swim Test; parameters: species or system mouse (male C57)
Experimental: In vivo efficacy (ameliorates behavioral despair) of A1 in corticosterone induced model of stress (J. Neurochem., 2018 146, 722 734). […] A1 (20 mg/kg, oral) dissolved in normal saline was given for 3 consecutive weeks following corticosteroid stress. The sucrose preference test was employed, tail suspension test, and forced swim test to evaluate behavioral distress. We noticed that A1 can resurrect mice in stressful situations. […]
The forced swim test was employed to evaluate behavioral melancholy in depressed subjects. Each animal was individually conditioned in a glass cylinder 20 cm long, 10 cm deep and 14 cm radius of curvature. After being submerged in water for 5 mins, the mice's cumulative stationary episode, struggle in water, and eventual floating condition were evaluated. The duration for which the animals were motionless while attempting to hold both of their front limbs still was calculated by interpreting the visualizations portraying behavioral despair (Front Behav Neurosci., 2018, 12, 42).

p TrkB 515 = experiment: Survival pathway protein expression by western blotting in SHSY5Y; assay type: cell-based, human
[7] = tested on: differentiated human neuroblastoma cell line SHSY5Y; experiment: In vitro neuroprotection against corticosterone, differentiated SHSY5Y, 48 hrs; assay type: cell-based
Experimental: as §2
In the next attempt, the neuroprotective properties of the generated library (20 μM, 48 hrs) were assessed employing differentiated human neuroblastoma cell line SHSY5Y and mouse neuroblastoma cell line N2A (Biomol Ther., 2022, 30(6), 570-575). The cells were assaulted with the neurotoxic corticosterone (Cort, 400 μM) for 24 hrs after the overnight preincubation of cells with test molecules as a selection criterion. […]

p-AKT 473 = experiment: Survival pathway protein expression by western blotting in SHSY5Y; assay type: cell-based, human
Experimental: as §3
To investigate the effect of A1 on the survival proteins, […] of survival proteins, including p-Erk 44/42, p-AKT 473, Anti BDNF, and p TrkB 816 and p TrKB 515 by western blotting.

TrkB stable cells SHSY5Y = experiment: Cytoprotective effect in TrkB stable cells SHSY5Y, 96 hrs; assay type: cell-based, human; details: 96 hrs; for viability at 20 µM: Homo sapiens, SH-SY5Y, 96 h, read-out: % Cell viability ± SD
Experimental: In another experiment, the cytoprotective effect of A1 as well as parent molecule B1 was determined in TrkB stable cells SHSY5Y.

[8] = different concentrations of A1, 6 hrs
[9] = A1 for multiple time spans, corticosterone

C=C(C)[C@@H]1CCC(C)=C[C@H]1c1c(O)cc(CCCCC)c(CN2CCOCC2)c1O [A1, 2′-(morpholin-1-ylmethyl)-cannabidiol]
viability at 48 h, 20 µM [1]: 114 ± 2.28%
viability at 48 h, 20 µM [2]: 115.7 ± 0.71%
Relative Protein Expression p TrkB 816 (p TrkB 816 [3]; A1 5 μM, 6 hrs): 3.11
Relative Protein Expression p TrkB 816 (p TrkB 816 [3]; A1 10 μM, 6 hrs): 2.91
Relative Protein Expression p TrkB 816 (p TrkB 816 [3]; A1 + Cort., 6 hr): 23.0422
Relative Protein Expression p TrkB 816 (p TrkB 816 [3]; A1/Cort., A1 5 μM, 6 hrs): 1.41
Relative Protein Expression p TrkB 816 (p TrkB 816 [3]; A1/Cort., A1 10 μM, 6 hrs): 2.89
expression of p TrkB 816 (in words) (p TrkB 816 [3]; [8]): increased significantly
Relative Protein Expression Anti BDNF (Anti BDNF [4]; A1 5 μM, 6 hrs): 0.67
Relative Protein Expression Anti BDNF (Anti BDNF [4]; A1 10 μM, 6 hrs): 1.48
Relative Protein Expression Anti BDNF (Anti BDNF [4]; A1 + Cort., 6 hr): 39.43
Relative Protein Expression Anti BDNF (Anti BDNF [4]; A1/Cort., A1 5 μM, 6 hrs): 0.44
Relative Protein Expression Anti BDNF (Anti BDNF [4]; A1/Cort., A1 10 μM, 6 hrs): 1.34
expression of Anti BDNF (in words) (Anti BDNF [4]; [8]): increased significantly
Relative Protein Expression p ERK 44/42 (p-Erk 44/42; A1 5 μM): 4.51
Relative Protein Expression p ERK 44/42 (p-Erk 44/42; A1 10 μM): 8.80
Relative Protein Expression p ERK 44/42 (p-Erk 44/42; A1/Cort., A1 5 μM): 3.70
Relative Protein Expression p ERK 44/42 (p-Erk 44/42; A1/Cort., A1 10 μM): 5.05
expression of p-Erk 44/42 (in words) (p-Erk 44/42; [8]): increased significantly
Relative Protein Expression Anti BDNF (Anti BDNF [5]; 0 hr): 1.029
Relative Protein Expression Anti BDNF (Anti BDNF [5]; 0.5 hr): 14.02
Relative Protein Expression Anti BDNF (Anti BDNF [5]; 1 hr): 28.11
Relative Protein Expression Anti BDNF (Anti BDNF [5]; 2 hr): 51.76
Relative Protein Expression Anti BDNF (Anti BDNF [5]; 4 hr): 41.62
expression of Anti BDNF (in words) (Anti BDNF [5]; [9]): remarkably increased
Relative Protein Expression p TrkB 816 (p TrkB 816 [6]; 0 hr): 1.012
Relative Protein Expression p TrkB 816 (p TrkB 816 [6]; 0.5 hr): 1.309
Relative Protein Expression p TrkB 816 (p TrkB 816 [6]; 1 hr): 10.54
Relative Protein Expression p TrkB 816 (p TrkB 816 [6]; 2 hr): 16.76
Relative Protein Expression p TrkB 816 (p TrkB 816 [6]; 4 hr): 23.54
expression of p TrkB 816 (in words) (p TrkB 816 [6]; [9]): remarkably increased
% Immobility (sec) ± SD (dead time) (depression mice model; with Cort.): 17.67 ± 5.12 s
% Latency to immobility (sec) ± SD (depression mice model; with Cort.): 34.06 ± 14.03 s
% Immobility (sec) ± SD (dead time) (depression mice model; without Cort.): 24.22 ± 5.30 s
% Latency to immobility (sec) ± SD (depression mice model; without Cort.): 44.59 ± 19.55 s
Relative Protein Expression p TrkB 515 (p TrkB 515; A1 5 μM, 6 hrs): 0.23
Relative Protein Expression p TrkB 515 (p TrkB 515; A1 + Cort., 0 hr): 1.019
Relative Protein Expression p TrkB 515 (p TrkB 515; A1 + Cort., 0.5 hr): 2.277
Relative Protein Expression p TrkB 515 (p TrkB 515; A1 + Cort., 1 hr): 6.57
Relative Protein Expression p TrkB 515 (p TrkB 515; A1 + Cort., 2 hr): 8.707
Relative Protein Expression p TrkB 515 (p TrkB 515; A1 + Cort., 4 hr): 8.145
expression of p TrkB 515 (in words) (p TrkB 515; [9]): remarkably increased
cell viability (in words) ([7]; 20 μM + Cort. 400 μM, compared with corticosterone treated group, SHSY5Y and N2A): the highest number of viable cells were observed in A1 treated line
viability at 20 µM ([7]; Homo sapiens, SH-SY5Y, test compound 20 μM + Cort. 400 μM, 48 hrs, read-out: % Cell viability ± SD, SHSY5Y): 97.9 ± 1.31%
Relative Protein Expression PAKT 473 (p-AKT 473; A1 5 μM, 6 hrs): 0.67
Relative Protein Expression PAKT 473 (p-AKT 473; A1 10 μM, 6 hrs): 1.60
Relative Protein Expression PAKT 473 (p-AKT 473; A1 + Cort., 0 hr): 1.00
Relative Protein Expression PAKT 473 (p-AKT 473; A1 + Cort., 0.5 hr): 11.68
Relative Protein Expression PAKT 473 (p-AKT 473; A1 + Cort., 1 hr): 14.78
Relative Protein Expression PAKT 473 (p-AKT 473; A1 + Cort., 2 hr): 17.15
Relative Protein Expression PAKT 473 (p-AKT 473; A1 + Cort., 4 hr): 26.33
Relative Protein Expression PAKT 473 (p-AKT 473; A1 + Cort., 6 hr): 31.80
Relative Protein Expression PAKT 473 (p-AKT 473; A1/Cort., A1 5 μM, 6 hrs): 0.60
Relative Protein Expression PAKT 473 (p-AKT 473; A1/Cort., A1 10 μM, 6 hrs): 1.35
expression of p-AKT 473 (in words) (p-AKT 473; [9]): remarkably increased
cell viability versus control (in words) (TrkB stable cells SHSY5Y): increased cell viability versus control
viability at 20 µM (TrkB stable cells SHSY5Y; test compound 20 μM + Cort. 400 μM): 97.2 ± 1.13%
viability at 20 µM (TrkB stable cells SHSY5Y; test compound alone, 20 μM): 110 ± 1.61%
